Reference: patent US20190255078A1, “TOPICAL COMPOSITIONS WITH STABLE SOLUBILIZED SELECTIVE RETINOIDS AND/OR TETRACYCLINE-CLASS ANTIBIOTICS” (BioPharmX, Inc., priority 2018, published 2019)

Legend:
[1] = cited from earlier work
[2] = system: antibiotic-resistant P. acnes; conditions: clinical isolates of antibiotic-resistant P. acnes; cited from earlier work
[3] = Solubility of tazarotene in solvents and solvent mixtures (Example 2); format: physicochemical
Source text: Tazarotene is known to have low solubility in many traditional solvent systems. […] However, compositions with ethanol as the only solvent are typically irritating to the skin, have a pungent smell, and leave the skin feeling dry. […] It has been discovered that that mixtures of ethanol and carboxylate esters have higher solubility of tazarotene than would be expected from mixtures of the components individually.
Tazarotene is desirably used in compositions at a concentration of 0.01% to 0.20% (w/w). […].
As shown in Table 5 and FIG. 2, the tazarotene solubility in selected binary and tertiary mixtures was even higher than the solubility of tazarotene in ethanol alone. […] Even small amounts of carboxylate esters can have unexpectedly large effects.
Thus, the tazarotene in selected ranges of binary mixtures was higher than the solubility of tazarotene in the individual components of the solvent mixture.

[4] = Stability of tazarotene in solution with antioxidants and/or magnesium chloride (Example 3A); format: physicochemical
Experimental: Retinoids can undergo chemical degradation in solutions due to oxidation. However, many antioxidants are not effective in sufficiently stabilizing retinoids in a pharmaceutical composition. A study was performed in which samples consisting of 0.05% (w/w) tazarotene dissolved in 79.15% (w/w) ethanol (anhydrous), 0.6% hydroxypropyl cellulose HF (KLUCEL HF), 20% propylene glycol, and 0.20% (w/w) of an antioxidant were stored in a sealed amber glass container for 8 weeks at 40° C. For the tested composition with no antioxidant, the additional 0.20% was made up with ethanol (anhydrous).
Only one of the antioxidants improved the stability of tazarotene: propyl gallete, reducing the degradation from 5% to 1% over the 8-week period. In contrast, the antioxidant ascorbic acid increased the degradation from 5% to approximately 50% over the 8-week period.
Similarly, divalent cations such as magnesium, are also ineffective in stabilizing tazarotene. A mixture comprising ethanol, 0.6% magnesium chloride, and 0.05% tazarotene was stored in a sealed amber glass container for 13 weeks at 40° C.
A mixture comprising ethanol, 0.6% magnesium chloride, 0.2% sodium metabisulfite, and 0.05% tazarotene was stored in a sealed amber glass container for 13 weeks at 40° C. The tazarotene degraded by 3% over the 13-week period in comparison to 5% degradation for a mixture comprising ethanol and 0.05% tazarotene (and without magnesium chloride or an antioxidant) over the same period. […] Measurements for an additional composition comprising ethanol, 0.20% sodium metabisulfite, and 0.05% tazarotene (without the presence of magnesium chloride) were taken at 0, 1, 2, 4, and 8 weeks. Only the data at 0 and 8 weeks are presented in FIG. 3A for this composition. Data for this composition was not captured at 13 weeks.

[5] = Room temperature stability of tazarotene and minocycline in single and combination compositions (Example 5); format: physicochemical; conditions: 18 months
[6] = Stability of tazarotene in solution with antioxidants and/or magnesium chloride (Example 3A); format: physicochemical; conditions: ethanol (anhydrous), sodium metabisulfite, sealed amber glass
[7] = Stability at 40° C. of single and dual API compositions of Table 13-1 (Example 10); conditions: 6 months
Experimental: The exemplary compositions comprised tazarotene, minocycline, or a combination thereof. Each composition was stored at room temperature for 2 and 5 weeks in a sealed amber glass container at 40° C.

COc1ccc(-c2ccc3cc(C(=O)O)ccc3c2)cc1C12CC3CC(CC(C3)C1)C2 [Adapalene, 6-[3-(1-adamantyl)-4-methoxy-phenyl]naphthalene-2-carboxylic acid]
log P [1]: approximately 6

C[C@H]1c2cccc(O)c2C(=O)C2=C(O)[C@]3(O)C(=O)C(C(N)=O)=C(O)[C@@H](N(C)C)[C@@H]3[C@@H](O)[C@@H]21 [doxycycline, (4S,4aR,5S,5aR,6R,12aS)-4-(dimethylamino)-3,5,10,12,12a-pentahydroxy-6-methyl-1,11-dioxo-1,4,4a,5,5a,6,11,12a-octahydrotetracene-2-carboxamide]
average MIC90 [2]: 8 µg/mL | Log P ([1]; free base form): about −0.02

CC[C@H]1OC(=O)[C@H](C)[C@@H](O[C@H]2C[C@@](C)(OC)[C@@H](O)[C@H](C)O2)[C@H](C)[C@@H](O[C@@H]2O[C@H](C)C[C@H](N(C)C)[C@H]2O)[C@](C)(O)C[C@@H](C)C(=O)[C@H](C)[C@@H](O)[C@]1(C)O [erythromycin]
average MIC90 [2]: ~512 µg/mL

CCOC(=O)c1ccc(C#Cc2ccc3c(c2)C(C)(C)CCS3)nc1 [tazarotene, ethyl 6-[2-(4,4-dimethyl-2,3-dihydrothiochromen-6-yl)ethynyl]pyridine-3-carboxylate]
tazarotene solubility relative to solubility in ester alone ([3]; ethanol and at least one carboxylate ester, binary and tertiary mixtures): 2-5 times | TAZAROTENE SOLUBILITY ([3]; ethanol and diisopropyl adipate 1:1 (W/W)): 39.0 mg/g | TAZAROTENE SOLUBILITY ([3]; ethanol and diisopropyl adipate 9:1 (W/W)): 23.3 mg/g | TAZAROTENE SOLUBILITY ([3]; ethanol and dimethyl succinate 20:80 (W/w)): 109.42 mg/g | TAZAROTENE SOLUBILITY ([3]; ethanol and dimethyl succinate 40:60 (W/w)): 103.65 mg/g | TAZAROTENE SOLUBILITY ([3]; ethanol and dimethyl succinate 60:40 (W/w)): 67.18 mg/g | TAZAROTENE SOLUBILITY ([3]; ethanol and dimethyl succinate 80:20 (W/w)): 45.30 mg/g | TAZAROTENE SOLUBILITY ([3]; ethanol and isopropyl myristate 1:1 (W/W)): 37.8 mg/g | TAZAROTENE SOLUBILITY ([3]; ethanol and isopropyl myristate 9:1 (W/W)): 34.8 mg/g | TAZAROTENE SOLUBILITY ([3]; ethanol and medium chain triglyceride 1:1 (W/W)): 38.6 mg/g | TAZAROTENE SOLUBILITY ([3]; ethanol and medium chain triglyceride 9:1 (W/W)): 23.5 mg/g | TAZAROTENE SOLUBILITY ([3]; ethanol and propyl acetate 20:80 (W/w)): 179.99 mg/g | TAZAROTENE SOLUBILITY ([3]; ethanol and propyl acetate 40:60 (W/w)): 139.85 mg/g | TAZAROTENE SOLUBILITY ([3]; ethanol and propyl acetate 60:40 (W/w)): 80.16 mg/g | TAZAROTENE SOLUBILITY ([3]; ethanol and propyl acetate 80:20 (W/w)): 44.12 mg/g | TAZAROTENE SOLUBILITY ([3]; ethanol and propylene glycol 1:1 (W/W)): 10.3 mg/g | TAZAROTENE SOLUBILITY ([3]; ethanol and propylene glycol 4:1 (W/W)): 22.3 mg/g | TAZAROTENE SOLUBILITY ([3]; ethanol, glycerol, and isopropyl myristate 7:2:1 (W/W)): 30.3 mg/g | TAZAROTENE SOLUBILITY ([3]; ethanol, propylene glycol, and diisopropyl adipate 7:2:1 (W/W)): 24.9 mg/g | TAZAROTENE SOLUBILITY ([3]; ethanol, propylene glycol, and dimethyl succinate 7:2:1 (W/W)): 30.1 mg/g | TAZAROTENE SOLUBILITY ([3]; ethanol, propylene glycol, and isopropyl myristate 7:2:1 (W/W)): 32.3 mg/g | TAZAROTENE SOLUBILITY ([3]; ethanol, propylene glycol, and medium chain triglycerides 7:2:1 (W/W)): 24.4 mg/g | TAZAROTENE SOLUBILITY ([3]; ethanol, propylene glycol, and propyl acetate 7:2:1 (W/W)): 29.1 mg/g | TAZAROTENE SOLUBILITY ([3]; in diisopropyl adipate): 1.21 mg/g | TAZAROTENE SOLUBILITY ([3]; in dimethyl succinate): 63.18 mg/g | TAZAROTENE SOLUBILITY ([3]; in isopropyl myristate): 0.75 mg/g | TAZAROTENE SOLUBILITY ([3]; in medium chain triglycerides): 0.16 mg/g | TAZAROTENE SOLUBILITY ([3]; in propyl acetate): 138.04 mg/g | TAZAROTENE SOLUBILITY ([3]; in propylene glycol): 0.0054 mg/g | TAZAROTENE SOLUBILITY ([3]; propylene glycol and diisopropyl adipate 2:0 (W/W)): 5.6 mg/g | TAZAROTENE SOLUBILITY ([3]; propylene glycol and dimethyl succinate 2:1 (W/W)): 1.27 mg/g | TAZAROTENE SOLUBILITY ([3]; propylene glycol and isopropyl myristate 2:1 (W/W)): 6.0 mg/g | TAZAROTENE SOLUBILITY ([3]; propylene glycol and propyl acetate 2:1 (W/W)): 1.55 mg/g | solubility for tazarotene in combined solvent systems ([3]; selected ratios of carboxylate esters to monohydric aliphatic alcohol): at least 25 mg/g | Reduction in Tazarotene concentration after 8 weeks at 40° C. (% degradation relative to baseline tazarotene) ([4]; 0.05% tazarotene in ethanol/20% propylene glycol/0.6% HPC, antioxidant: none): 5% | Reduction in Tazarotene concentration after 8 weeks at 40° C. (% degradation relative to baseline tazarotene) ([4]; antioxidant: 0.20% BHT): 5% | Reduction in Tazarotene concentration after 8 weeks at 40° C. (% degradation relative to baseline tazarotene) ([4]; antioxidant: 0.20% Dl-Alpha Tocopherol): 5% | Reduction in Tazarotene concentration after 8 weeks at 40° C. (% degradation relative to baseline tazarotene) ([4]; antioxidant: 0.20% propyl gallete): 1% | Reduction in Tazarotene concentration after 8 weeks at 40° C. (% degradation relative to baseline tazarotene) ([4]; antioxidant: 0.20% sodium metabisulfite (SMBS)): 8% | Reduction in Tazarotene concentration after 8 weeks at 40° C. (% degradation relative to baseline tazarotene) ([4]; antioxidant: 0.20% sodium nitrate): 10% | Reduction in Tazarotene concentration after 8 weeks at 40° C. (% degradation relative to baseline tazarotene) ([4]; antioxidant: 0.20% sodium sulfite): 10% | Reduction in Tazarotene concentration after 8 weeks at 40° C. (% degradation relative to baseline tazarotene) ([4]; antioxidant: 0.20% tocopherol): 5% | tazarotene degradation over 13 weeks at 40° C. ([4]; ethanol and 0.05% tazarotene, without magnesium chloride or antioxidant): 5% | tazarotene degradation over 13 weeks at 40° C. ([4]; ethanol, 0.6% magnesium chloride, 0.05% tazarotene, sealed amber glass): 13% | tazarotene degradation over 13 weeks at 40° C. ([4]; ethanol, 0.6% magnesium chloride, 0.2% sodium metabisulfite, 0.05% tazarotene): 3% | stability when added in combination versus each drug alone ([5]; compositions of Table 9): more stable | stability in compositions of Table 9 ([5]; sealed amber glass): stable after 18 months | tazarotene degradation when stored for 12 months at room temperature [6]: less than 7% | log P [1]: ~4.3 | stability when added in combination versus alone ([7]; compositions of Table 13-1): more stable | stability in single API and dual API compositions ([7]; compositions of Table 13-1 (FIGS. 8A-8B)): stable
